Values of other authors, collected in patent publication US9693945B1, “Method of solubilizing a composition of a cleaned photochromic dye suitable for use on human skin” (priority 2016, dated 2017).

Tested on: Salmonella typhimurium
Details: background on compounds formerly used in commercial products

In the case of `NC(=O)/C(=C\c1ccc([N+](=O)[O-])o1)c1ccco1` [furylfuramide], the “Ames test outcome (identified as potential carcinogen)” value is given as “positive”.

In the case of `O=P(OCC(Br)CBr)(OCC(Br)CBr)OCC(Br)CBr` (centres unmarked) [tris (2,3-dibromopropyl) phosphate], the “Ames test outcome (identified as potential carcinogen)” value is listed as “positive”.
